Assay results reported in patent US20140323533A1, “COMBINATION OF ANTI-CTLA4 ANTIBODY WITH TUBULIN MODULATING AGENTS FOR THE TREATMENT OF PROLIFERATIVE DISEASES” (BRISTOL-MYERS SQUIBB COMPANY, priority 2013, published 2014).
“And” between values parts separate entries of the source, which are not always exact repeats. Identical values can stand only once.

Columns and labels:
M109 lung carcinoma [1] = assay: Antitumor activity in the M109 lung carcinoma tumor model; format: in vivo, mouse; details: for % Tumor-Free Mice after Initial Tumor Implantation: Study 40, footnote: percentage of animals that develop tumors following implantation on Day 0
Protocol: (§1) Tumor cell lines were maintained in vitro. Treatments were initiated when the subcutaneous tumors reached a median size between 100-200 mm^3 (established model) or prior to detection (initiation model). Tumors were measured twice weekly and tumor size (mm^3) was calculated as (length×width^2)/2. Body weights were obtained weekly. The tumor models used in these studies are outlined in Table 1.
(§2) The dose levels, routes and dosing schedules are indicated for each particular study described below. Antibodies and chemotherapeutic agents were administered intraperitoneally (i.p.). Each treatment regimen consisted of a cohort of eight to ten mice. Anti-tumor activity, defined as percentage tumor growth inhibition, was calculated as follows: […]
The antitumor effects of CTLA-4 mAb and microtubule-stabilizing agents were also studied in the M109 lung carcinoma model, a tumor line which is not sensitive to the effect of CTLA-4 blockade. In these studies treatments with chemotherapeutic agents were initiated when tumors were palpable, on day 3 after tumor implantation. This regimen was selected to produce a measurable antitumor effect, which was not observed when treatments were initiated at a later time. As in the studies conducted in the SA1N and EMT-6 tumor lines, CTLA-4 mAb was dosed one day after treatment with chemotherapy.

SA1N fibrosarcoma = assay: Antitumor activity in the SA1N fibrosarcoma tumor model; format: in vivo, mouse; details: for % TGI: IP every 4 days x3; for CR/Total # mice: complete regressions; for T-C: target size 500 mm^3
Protocol: as §1
The dose levels, routes and dosing schedules are indicated for each particular study described below. Antibodies and chemotherapeutic agents were administered intraperitoneally (i.p.). Each treatment regimen consisted of a cohort of eight to ten mice. Anti-tumor activity, defined as percentage tumor growth inhibition, was calculated as follows:
% Tumor Growth Inhibition=100−[(Tt/To)/(Ct/Co)]/100−(Ct/Co)
(§3) In addition, another parameter used to define efficacy was to determine time to tumor progression to target size (T−C), where the time (days) for the median tumor size of control (C) mice to reach target size was subtracted to the time for median tumor size of treated (T) mice to reach target size.
SA1N fibrosarcoma is an inherently immunogenic tumor line which is sensitive to the effects of CTLA-4 blockade. Two studies were conducted to determine the effect of CTLA-4 blockade in combination with ixabepilone or paclitaxel in this tumor model (see Table 1). Animals were implanted with SA1N cells subcutaneously and treatments were initiated when tumors reached 100-150 mm^3. Experimental groups consisted of cohorts of 8 mice. Ixabepilone, paclitaxel and CTLA-4 mab were administered intraperitoneally (IP) every 4 days for 3 doses. In the combination groups, CTLA-4 mab was administered one day after each chemotherapy treatment.

EMT-6 mammary carcinoma = assay: Antitumor activity in the EMT-6 mammary tumor model; format: in vivo, mouse; details: for % Tumor-free Mice / T-C: Study 27; for T-C: treatment from day 3/4, every 4 days x3 IP, ixabepilone 8, paclitaxel 24, CTLA-4 mAb 20 mg/kg
Protocol: as §1, §2, §3

CT26 colon carcinoma = assay: Antitumor activity in the CT26 colon tumor model; format: in vivo, mouse; details: for % Complete Regressions/Total # mice: IP every 4 days x3, ixabepilone 8, paclitaxel 24, CTLA-4 mAb 20 mg/kg; for antitumor effect in words: text and FIG. 2
Protocol: as §1, §2
Next, the antitumor effects of CTLA-4 mAb and nmicrotubule-stabilizing agents were studied in a model not sensitive to ixabepilone or paclitaxel, the CT26 colon carcinoma model.

[2] = tested on: A2780, HCT116, LS174T, HCT116/VM46, Pat-7, A2780Tax, Pat-21 tumor models; assay: Preclinical pharmacology studies of Compound 1 in tumor models; format: in vivo
M109 lung carcinoma [3] = assay: M109 tumor rechallenge of tumor-free mice; format: in vivo, mouse
Source text: To determine whether the combination of CTLA-4+ixabepilone produced a memory immune response able to reject a secondary tumor challenge, animals free of tumors by day 97 were re-challenge with a lethal M109 cell inoculum.

[4] = tested on: SA1N fibrosarcoma, M109 lung carcinoma, EMT-6 mammary carcinoma, CT-26 colon carcinoma and B16 melanoma; assay: Efficacy studies across murine tumor lines (summary); format: in vivo, mouse; details: animals with complete regressions rechallenged with lethal dose of tumor cells
Protocol: Efficacy studies were conducted in 3 different tumor lines implanted in immunocompetent mice: SAlN fibrosarcoma, MI09 lung carcinoma and EMT-6 mammary carcinoma. […] For the combination group, anti-CTLA-4 mAb was administered one day after each ixabepilone treatment. In selected studies, animals with complete tumor regressions were rechallenged with a lethal dose of tumor cells to determine the level of immune protection. In other studies, the combined efficacy of CTLA-4 mAb+ixabepilone was compared directly with CTLA-4 InAb+paclitaxel.
The effect of an anti-mouse CTLA-4 blocking antibody, the murine homolog of ipilimumab, was evaluated in multiple murine tumor models in combination with the microtubule-stabilizing agents paclitaxel (TAXOL®), and ixabepilone (IXEMPRA®). Efficacy studies were conducted in 5 different tumor lines: SA1N fibrosarcoma, M109 lung carcinoma, EMT-6 mammary carcinoma, CT-26 colon carcinoma and B16 melanoma. Ixabepilone, paclitaxel and CTLA-4 mAb were administered at their optimal dose and schedule: ixabepilone, 8 mg/kg; paclitaxel, 24 mg/kg, CTLA-4 mAb, 20 mg/kg every 4 days for 3 doses. For the combination group, anti-CTLA-4 mAb was administered one day after each ixabepilone or paclitaxel treatment. In selected studies, animals with complete tumor regressions were rechallenged with a lethal dose of tumor cells to determine the level of immune protection.

[5] = Study 17, calculated Day 33, ixabepilone 8, paclitaxel 24, CTLA-4 mAb 20 mg/kg
[6] = Study 17, study terminated day 116

## 5beta,20-Epoxy-1,2alpha,4,7beta, 10beta, 13alpha-hexahydroxytax-11-en-9-one 4,10-diacetate 2-benzoate 13-ester with (2R,3S)—N-benzoyl-3-phenylisoserine [Paclitaxel]
M109 lung carcinoma [1]; FIG. 1
  antitumor effect in words: did not produce antitumor effects
M109 lung carcinoma [1]
  % Tumor-Free Mice after Initial Tumor Implantation: 100%
SA1N fibrosarcoma; Study 11, calculated Day 34, paclitaxel 24, CTLA-4 mAb 20 mg/kg
  % TGI: 88%
SA1N fibrosarcoma; Study 11
  CR/Total # mice: 3/8
SA1N fibrosarcoma; Study 11, study terminated day 52
  T-C: 13 days
SA1N fibrosarcoma; [5]
  % TGI: 0%
SA1N fibrosarcoma; Study 17
  CR/Total # mice: 0/8
SA1N fibrosarcoma; [6]
  T-C: 0 days
SA1N fibrosarcoma; both SA1N studies
  antitumor effect in words: variable effect
EMT-6 mammary carcinoma
  antitumor effect in words: ineffective
  % Tumor-free Mice: 0%
  T-C: 0 days
CT26 colon carcinoma
  % Complete Regressions/Total # mice: 0/10
  antitumor effect in words: neither paclitaxel or ixabepilone produced any measurable antitumor activity

## C/C(=C\c1csc(C)n1)[C@@H]1C[C@@H]2O[C@]2(C)CCC[C@H](C)[C@H](O)[C@@H](C)C(=O)C(C)(C)[C@@H](O)CC(=O)N1 (relative stereo) [Compound 1, [1S-[1R*,3R*(E),7R*,10S*,11R*,12R*,16S*]]-7,11-dihydroxy-8,8,10,12,16-pentamethyl-3-[1-methyl-2-(2-methyl-4-thiazolyl)ethenyl]-4-aza-17-oxabicyclo[14.1.0]heptadecane-5,9-dione]
[2]; oral vs parenteral administration
  oral efficacy in words: orally efficacious
[2]; paclitaxel-sensitive and paclitaxel-resistant human tumor models
  antitumor activity in words: very impressive and broad spectrum of antitumor activity

## C/C(=C\c1csc(C)n1)[C@@H]1C[C@@H]2O[C@]2(C)CCC[C@H](C)[C@H](O)[C@@H](C)C(=O)C(C)(C)[C@@H](O)CC(=O)N1 [Ixabepilone, (1S,3S,7S,10R,11S,12S,16R)-7,11-dihydroxy-8,8,10,12,16-pentamethyl-3-[(1E)-1-methyl-2-(2-methyl-4-thiazolyl)ethenyl]-17-oxa-4-azabicyclo[14.1.0]heptadecane-5,9-dione]
M109 lung carcinoma [1]
  treated animals in which tumor growth was inhibited: 50%
  % Tumor-Free Mice after Initial Tumor Implantation: 50%
SA1N fibrosarcoma; Study 9
  CR/Total # mice, percentage in parentheses (% CR): (37.5) %
  CR/Total # mice: 3 out of 8 and 3/8
SA1N fibrosarcoma; Study 9, calculated Day 36, ixabepilone 8 mg/kg, CTLA-4 mAb 20 mg/kg
  % TGI: 92%
SA1N fibrosarcoma; Study 9, study terminated day 39
  T-C: 11 days
SA1N fibrosarcoma; Study 17
  CR/Total # mice, percentage in parentheses (% CR): (0) %
  CR/Total # mice: 0/8
SA1N fibrosarcoma; [5]
  % TGI: 83%
SA1N fibrosarcoma; [6]
  T-C: 7 days
EMT-6 mammary carcinoma
  % Tumor-free Mice: 20%
  T-C: 19 days
M109 lung carcinoma [3]; Study 40, footnote: percentage of mice that develop tumors after tumor rechallenge on Day 95
  % mice developing tumors after rechallenge: 75%
M109 lung carcinoma [3]; tumor-free mice re-challenged with lethal M109 inoculum
  mice that developed tumors after rechallenge, percent: 80%
M109 lung carcinoma [3]; tumor-free mice re-challenged with lethal M109 inoculum, count
  mice that developed tumors after rechallenge: 4 out of 5
[4]
  protection against tumor rechallenge in words: only partial protection
CT26 colon carcinoma
  % Complete Regressions/Total # mice: 0/10
  antitumor effect in words: neither paclitaxel or ixabepilone produced any measurable antitumor activity
